In ChEMBL document CHEMBL1154687, “Binding ensemble profiling with photoaffinity labeling (BEProFL) approach: mapping the binding poses of HDAC8 inhibitors” (J Med Chem, 2009):

Target: T1, Histone deacetylase 8 (Homo sapiens, UniProt Q9BY41)
T1 sequence (Q9BY41 whole entry): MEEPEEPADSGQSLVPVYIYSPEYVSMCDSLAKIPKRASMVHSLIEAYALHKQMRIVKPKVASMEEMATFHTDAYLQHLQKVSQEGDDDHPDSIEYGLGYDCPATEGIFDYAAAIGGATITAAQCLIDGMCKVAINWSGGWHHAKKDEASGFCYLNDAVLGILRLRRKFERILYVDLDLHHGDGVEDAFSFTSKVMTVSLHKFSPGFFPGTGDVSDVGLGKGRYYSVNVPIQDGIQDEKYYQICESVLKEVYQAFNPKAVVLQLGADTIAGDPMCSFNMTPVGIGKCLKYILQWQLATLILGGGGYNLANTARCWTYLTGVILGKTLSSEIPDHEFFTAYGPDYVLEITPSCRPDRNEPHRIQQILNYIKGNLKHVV
Experiment: Inhibition of human recombinant HDAC8 using fluorescent acetylated substrate

Compound	IC50	Ki
[N-]=[N+]=Nc1ccc(-c2csc(NC(=O)CCCCCCC(=O)NO)n2)cc1	2.71 µM	2.43 µM
[N-]=[N+]=NCc1cc(COc2ccc(NC(=O)CCCCCCC(=O)NO)cc2)cc(N=[N+]=[N-])c1	7.34 µM	6.59 µM
